Reference: patent US7772188B2, “Methods and compositions for the treatment of gastrointestinal disorders” (priority 2003, dated 2010)
Positions of bridges follow the written chain, without caps; N, C: chain ends. Residues, ends and D or L forms follow the SMILES beside them.

Assays:
intestinal GC-C receptor = biological target: T1, intestinal GC-C receptor (Homo sapiens, UniProt P25092); experiment: Intestinal GC-C receptor activity assay (cyclic GMP by EIA in T84 cells); format: cell-based; details: chemically synthesized peptides, FIG. 2
T1 construct: host or cells: T84 human colon carcinoma cells
Experimental: The ability of SEQ ID NO:5, SEQ ID NO:4, and SEQ ID NO:3 to activate the intestinal GC-C receptor was assessed in an assay employing the T84 human colon carcinoma cell line (American Type Culture Collection (Bethesda, Md.)). For the assays cells were grown to confluency in 24-well culture plates with a 1:1 mixture of Ham's F12 medium and Dulbecco's modified Eagle's medium (DMEM), supplemented with 5% fetal calf serum and were used at between passages 54 and 60.
Briefly, monolayers of T84 cells in 24-well plates were washed twice with 1 ml/well DMEM, then incubated at 37° C. for 10 min with 0.45 ml DMEM containing 1 mM isobutylmethylxanthine (IBMX), a cyclic nucleotide phosphodiesterase inhibitor. Test peptides (50 μl) were then added and incubated for 30 minutes at 37° C. The media was aspirated and the reaction was then terminated by the addition of ice cold 0.5 ml of 0.1N HCl. The samples were held on ice for 20 minutes and then evaporated to dryness using a heat gun or vacuum centrifugation. The dried samples were resuspended in 0.5 ml of phosphate buffer provided in the Cayman Chemical Cyclic GMP EIA kit (Cayman Chemical, Ann Arbor, Mich.). Cyclic GMP was measured by EIA according to procedures outlined in the Cayman Chemical Cyclic GMP EIA kit.

gastrointestinal transit = experiment: Murine gastrointestinal transit (GIT) assay, charcoal front; format: in vivo, mice
Experimental: In order to determine whether the peptides increase the rate of gastrointestinal transit, the peptides and controls were tested using a murine gastrointestinal transit (GIT) assay (Moon et al. Infection and Immunity 25:127, 1979). In this assay, charcoal, which can be readily visualized in the gastrointestinal tract is administered to mice after the administration of a test compound. The distance traveled by the charcoal is measured and expressed as a percentage of the total length of the […].
Mice were fasted with free access to water for 12 to 16 hours before the treatment with peptide or control buffer. The peptides were orally administered at 1 μg/kg-1 mg/kg of peptide in buffer (20 mM Tris pH 7.5) 7 minutes before being given an oral dose of 5% Activated Carbon (Aldrich 242276-250G). Control mice were administered buffer only before being given a dose of Activated Carbon. After 15 minutes, the mice were sacrificed and their intestines from the stomach to the cecum were dissected. The total length of the intestine as well as the distance traveled from the stomach to the charcoal front was measured for each animal and the results are expressed as the percent of the total length of the intestine traveled by the charcoal front. All results are reported as the average of 10 mice±standard deviation. A comparison of the distance traveled by the charcoal between the mice treated with peptide versus the mice treated with vehicle alone was performed using a Student's t test and a statistically significant difference was considered for P<0.05. P-values are calculated using a two-sided T-Test assuming unequal variances.
The identical experiment was performed to determine if SEQ ID NO:3 is effective in a chronic dosing treatment regimen. Briefly, 8 week old CD1 female mice are dosed orally once a day for 5 days with either SEQ ID NO:3 (0.06 mg/kg or 0.25 mg/kg in 20 mM Tris pH 7.5) or vehicle alone (20 mM Tris pH 7.5). On the 5th day, a GIT assay is performed identical to that above except 200 μl of a 10% charcoal solution is administered. […] The results are shown side by side with acute dosing (1 day).

[1] = Absorbability/bioavailability study in mice, serum detection by competitive ELISA; format: in vivo, CD1 mice; details: FIG. 10a
Experimental: To study the pharmacokinetics of SEQ ID NO:3, absorbability studies in mice were performed by administering SEQ ID NO:3 intravaneously via tail vein injection or orally by gavage to 8-week-old CD1 mice. Serum was collected from the animals at various time points and tested for the presence of SEQ ID NO:3 using a competitive enzyme-linked immunoabsorbent assay (Oxoid, ST EIA kit, Cat#TD0700). The assay utilized monoclonal antibodies against ST peptide (antibodies are provided in the Oxoid kit) and synthetically manufactured SEQ ID NO:3.

[2] = biological target: T2, GC-C receptors found in rat intestinal mucosa (Rattus norvegicus, UniProt P23897); experiment: biochemical
T2 sequence (P23897 23-1072): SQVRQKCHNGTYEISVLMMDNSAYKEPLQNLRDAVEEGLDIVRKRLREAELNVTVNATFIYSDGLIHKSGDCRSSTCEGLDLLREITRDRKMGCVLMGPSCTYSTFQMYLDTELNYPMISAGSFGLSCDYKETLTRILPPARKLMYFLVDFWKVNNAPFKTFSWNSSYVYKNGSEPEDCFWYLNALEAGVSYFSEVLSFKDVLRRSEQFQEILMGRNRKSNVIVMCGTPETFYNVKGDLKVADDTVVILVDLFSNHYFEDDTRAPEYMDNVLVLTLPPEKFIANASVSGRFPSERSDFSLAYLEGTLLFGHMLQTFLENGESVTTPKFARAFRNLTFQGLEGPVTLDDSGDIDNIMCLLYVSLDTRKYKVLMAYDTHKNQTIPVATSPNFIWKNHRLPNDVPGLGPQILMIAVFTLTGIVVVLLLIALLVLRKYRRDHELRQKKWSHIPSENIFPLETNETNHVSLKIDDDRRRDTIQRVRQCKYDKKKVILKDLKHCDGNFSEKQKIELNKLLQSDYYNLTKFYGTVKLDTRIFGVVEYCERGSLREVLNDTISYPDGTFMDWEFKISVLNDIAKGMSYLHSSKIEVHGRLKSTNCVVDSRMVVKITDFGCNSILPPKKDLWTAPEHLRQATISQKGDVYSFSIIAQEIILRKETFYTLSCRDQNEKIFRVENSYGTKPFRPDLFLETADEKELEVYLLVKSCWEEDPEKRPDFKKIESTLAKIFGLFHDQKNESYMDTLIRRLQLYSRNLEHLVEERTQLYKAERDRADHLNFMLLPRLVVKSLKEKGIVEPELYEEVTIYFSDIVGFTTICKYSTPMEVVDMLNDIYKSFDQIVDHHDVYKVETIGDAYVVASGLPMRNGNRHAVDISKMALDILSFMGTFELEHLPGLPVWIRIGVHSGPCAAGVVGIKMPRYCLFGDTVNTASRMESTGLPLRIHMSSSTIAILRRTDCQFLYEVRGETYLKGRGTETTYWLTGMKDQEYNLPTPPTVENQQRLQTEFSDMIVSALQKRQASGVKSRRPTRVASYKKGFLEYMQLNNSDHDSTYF
Experimental: To determine the affinity of SEQ ID NO:3 for GC-C receptors found in rat intestinal mucosa, a competition binding assay was performed using rate intestinal epithelial cells. Epithelial cells from the small intestine of rats were obtained as described by Kessler et al. (J. Biol. Chem. 245: 5281-5288 (1970)). Briefly, animals were sacrificed and their abdominal cavities exposed. The small intestine was rinsed with 300 ml ice cold saline or PBS. 10 cm of the small intestine measured at 10 cm from the pylorus was removed and cut into 1 inch segments. Intestinal mucosa was extruded from the intestine by gentle pressure between a piece of parafilm and a P-1000 pipette tip. Intestinal epithelial cells were placed in 2 ml PBS and pipetted up and down with a 5 ml pipette to make a suspension of cells.
A competition binding assay was performed based on the method of Giannella et al. (Am. J. Physiol. 245: G492-G498) between [^125I] labeled SEQ ID NO:4 and SEQ ID NO:3. The assay mixture contained: 0.5 ml of DME with 20 mM HEPES-KOH pH 7.0, 0.9 mg of the cell suspension listed above, 21.4 fmol [^125I]-SEQ ID NO:4 (42.8 pM), and different concentrations of competitor SEQ ID NO:3 (0.01 to 1000 nM). […] The filters were washed with 5 ml ice-cold PBS and radioactivity was measured.

PBQ-induced writhing = experiment: Phenylbenzoquinone (PBQ)-induced writhing model

T1 sequence (P25092 24-1073): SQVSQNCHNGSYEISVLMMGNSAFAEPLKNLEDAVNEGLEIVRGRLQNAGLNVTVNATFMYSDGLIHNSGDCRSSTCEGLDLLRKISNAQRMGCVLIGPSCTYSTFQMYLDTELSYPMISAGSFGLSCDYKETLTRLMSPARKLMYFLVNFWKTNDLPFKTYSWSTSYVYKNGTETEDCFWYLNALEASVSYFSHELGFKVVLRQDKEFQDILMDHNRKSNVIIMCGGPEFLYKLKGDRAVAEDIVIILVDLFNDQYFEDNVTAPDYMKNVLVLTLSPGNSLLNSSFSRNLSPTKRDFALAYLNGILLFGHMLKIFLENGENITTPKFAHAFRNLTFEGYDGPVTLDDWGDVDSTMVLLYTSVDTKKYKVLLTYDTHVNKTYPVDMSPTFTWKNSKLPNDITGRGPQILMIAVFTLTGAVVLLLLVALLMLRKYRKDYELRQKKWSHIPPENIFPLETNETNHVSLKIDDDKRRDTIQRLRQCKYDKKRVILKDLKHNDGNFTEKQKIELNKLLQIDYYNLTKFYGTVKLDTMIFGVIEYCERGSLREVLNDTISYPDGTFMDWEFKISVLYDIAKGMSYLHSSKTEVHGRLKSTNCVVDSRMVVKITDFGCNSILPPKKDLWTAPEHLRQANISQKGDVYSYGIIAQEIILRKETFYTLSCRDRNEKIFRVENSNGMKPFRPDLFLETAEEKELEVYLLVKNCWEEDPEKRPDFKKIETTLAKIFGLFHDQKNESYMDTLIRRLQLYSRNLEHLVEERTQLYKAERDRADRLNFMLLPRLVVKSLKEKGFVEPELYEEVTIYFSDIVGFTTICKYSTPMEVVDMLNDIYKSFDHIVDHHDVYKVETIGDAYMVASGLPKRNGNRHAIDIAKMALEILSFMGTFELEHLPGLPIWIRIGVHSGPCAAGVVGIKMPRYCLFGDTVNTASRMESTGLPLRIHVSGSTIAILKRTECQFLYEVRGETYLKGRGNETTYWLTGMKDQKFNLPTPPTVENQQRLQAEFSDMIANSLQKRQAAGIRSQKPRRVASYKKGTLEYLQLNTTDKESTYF

## C[C@@H]1NC(=O)[C@@H]2CCCN2C(=O)[C@H](CC(N)=O)NC(=O)[C@@H]2CSSC[C@H](N)C(=O)N[C@H]3CSSC[C@H](NC1=O)C(=O)N[C@@H]([C@@H](C)O)C(=O)NCC(=O)N[C@H](C(=O)N[C@@H](Cc1ccc(O)cc1)C(=O)O)CSSC[C@H](NC(=O)[C@H](Cc1ccc(O)cc1)NC(=O)[C@H](CCC(=O)O)NC3=O)C(=O)N2 [SEQ ID NO:3, Cys Cys Glu Tyr Cys Cys Asn Pro Ala Cys Thr Gly Cys Tyr] (H-CCEYCCNPACTGCY-OH; disulfide 1-6, 2-10, 5-13; N-terminus and C-terminus assumed)
Intestinal GC-C receptor
  activity in GC-C receptor activity assay: activity comparable to SEQ ID NO:4
Gastrointestinal transit; acute, oral, mice, SEQ ID NO:4 and Zelnorm 0.1 mg/kg, FIG. 3a/3b
  gastrointestinal transit rate: increase gastrointestinal transit rate
Gastrointestinal transit; acute, oral, mice, chemically synthesized peptides, FIG. 4b
  intestinal transit rate versus Tris buffer or equivalent dose of Zelnorm: increase intestinal transit rates more than either Tris buffer alone or an equivalent dose of Zelnorm®
Gastrointestinal transit; oral once a day for 5 days, CD1 female mice, FIG. 4c
  effect in mouse gastrointestinal motility assay upon chronic dosing: effective
[1]; CD1, mouse, serum, oral versus IV
  bioavailability: < 2.2%
[1]; oral
  systemic absorption: minimally systemically absorbed
[2]
  Kd: 4.5 nM
PBQ-induced writhing; mouse PBQ writhing, visceral pain model
  antinociceptive effect relative to indomethacin: antinociceptive effects in this visceral pain model comparable to the intermediate doses of indomethacin
PBQ-induced writhing; mouse, oral, 2.5 mg/kg dose, FIG. 8b
  writhings compared to the vehicle control: Significant reductions in writhings
